# A melting point compilation (Tetko et al.; mined from patent text by program, amines drawn as free bases though some values may be those of a salt)
row,melting point,Structure (SMILES)
1,161 to 163 °C,CC(C)(C)c1ccc(C(O)(c2ccccc2)C2CCN(CCCC(O)c3ccccc3)CC2)cc1 (stereo unspecified)
2,192 to 195 °C,Cc1cc(=O)c(-c2ccc(C#N)cc2)c(C)[nH]1
3,222 to 224 °C,Cc1ccc(C2=NNC(=O)Cc3cc4c(cc32)OCO4)cc1
4,242 to 244 °C,CC1(C)OC(=S)Nc2ccc(-c3ccc(C#N)s3)cc21
5,219 to 221 °C,CC1(C)CCc2c(N3CCSCC3)nc3sc4c(NCCCN5CCCC5=O)ncnc4c3c2C1
6,62 to 64 °C,C=C(C)c1ccc2c(c1)Cc1ccccc1O2
7,95 °C,COc1ccc(Cc2ccc3c(c2)OCO3)cc1C
8,190 to 191 °C,Cc1c(Cc2cccc(C(F)(F)F)c2)sc2c(-c3cccc(C(N)=O)c3)cccc12
9,217 °C,CCOC(=O)c1cn(N)c2c(F)c(F)c(F)cc2c1=O
10,153 to 155 °C,CCC(NC(=NC#N)Nc1cccnc1)c1cccc(Cl)c1 (stereo unspecified)
11,188 to 191 °C,CCOC(=O)NNC(=O)NC1c2ccccc2Oc2ccccc21
12,148 to 149 °C,CCN1c2ncc([N+](=O)[O-])cc2C(=O)N(C)c2cccnc21
13,95 to 97 °C,COc1ccc2nc(N3CCN(C[C@H]4COc5ccc6nc(C)ccc6c5O4)CC3)ccc2c1
14,108 to 110 °C,CCC(CC)c1ccc(Cl)c2nc3n(c12)CCCCN3c1ncc(C(F)(F)F)cc1Cl
15,158 to 161 °C,O=C(N[C@@H](Cc1ccc(OCCc2coc(-c3ccccc3)n2)cc1)C(=O)O)c1ccc(Cl)cc1
16,214 to 216 °C,COc1cc2ncnc(N3CCN(C(=S)NCc4ccc([N+](=O)[O-])cc4)CC3)c2cc1OC
17,150 to 152 °C,CSc1cc(C(C)=O)ccc1OCCCN1CCC(c2noc3cc(F)ccc23)CC1
18,88 to 90 °C,Cc1ccc(S(=O)(=O)OCC2Cc3cccc(Nc4ccc(C)c(C)c4)c3O2)cc1 (stereo unspecified)
19,155 to 157 °C,Nc1ccc(Cl)cc1C(=O)NCCCn1ccnc1
20,117 to 119 °C,O=S(=O)(Nc1cccc(CCOCc2csc(-c3ccc(C(F)(F)F)cc3)n2)c1)C(F)(F)F
21,122 to 123 °C,CC(=O)Nc1cccc(-c2nn(Cc3oc4ccccc4c(=O)c3-c3ccccc3)c3ncnc(N)c23)c1
22,205 to 208 °C,CCOC(=O)c1sc(N)nc1-c1ccc(F)cc1
23,130 to 133 °C,Cc1nc(N)c2nc(C)n(CCOCCN)c2c1C

row,melting point,Structure (SMILES)
1,161 to 163 °C,Nc1nc(Cl)cc(Oc2ccc3c(c2)OCCN3C(=O)OCc2ccccc2)n1
2,91 to 92 °C,CC(=C1SCCCS1)c1ccc(N2CCN(C)CC2)cc1
3,120 to 121 °C,NS(=O)(=O)CCCCCSc1ccc2nccn2n1
4,126 to 128 °C,COc1ccc(C2=CCC(N3CCN(Cc4ccccc4)CC3)CC2)cc1 (stereo unspecified)
5,186 to 187 °C,O=c1[nH]c2ccc(O)cc2[nH]1
6,190 to 196 °C,NC1(NC(=O)C(F)(F)F)CN(c2c(F)cc3c(=O)c(C(=O)O)cn(-c4ccc(F)cc4F)c3c2F)C1
7,98 to 99 °C,CC(C)(C)OC(=O)[C@@H]1CCCN1CC(=O)[C@H](Cc1ccccc1)NC(=O)OCc1ccccc1
8,103 to 105 °C,Brc1ccc(OCc2ccc3ccccc3n2)cc1
9,137 to 139 °C,COCCOc1ncnc2[nH]ccc12
10,140 °C,N#Cc1cc(-c2cc(C(F)F)c3c(-c4cccnc4)nn(C4CCCCO4)c3n2)ccc1N (stereo unspecified)
11,120 to 125 °C,COc1cccc(N(c2ccccc2)c2ccc(-c3ccc(N(c4ccccc4)c4cccc(OC)c4)cc3)cc2)c1
12,262 to 264 °C,COc1ccc2[nH]c3c([N+](=O)[O-])ccc(Cl)c3c(=O)c2c1
13,163 to 166 °C,CC(C)(C)OC(=O)C1CCCN1Cc1ccc2cc(NC(=O)c3ccc(-c4ccc(Cl)cc4)cc3)ccc2n1 (stereo unspecified)
14,241 to 243 °C,O=c1cc(O)n(-c2cccc(C(F)(F)F)c2)nc1-c1ccnn1-c1ccccc1
15,101 to 102 °C,CCCOc1ccc(COCCO)cc1-c1nc2c(CCC)nn(C)c2c(=O)[nH]1
16,111 to 113 °C,CCOc1nc(NCCN2CCCC2)nc(Nc2ccc(F)c(Cl)c2)n1
17,> 250 °C,CCOC(=O)c1c(Cl)nc2cc(Cl)c(OC)cc2c1CCl
18,94 to 96 °C,CCOC(=O)CNC(=O)CCc1cc(Cl)ccc1C(=O)CCCNC(=O)CCCNC(C)=O
19,236 to 238 °C,O=C1COc2cc(Sc3ccc(O)c(O)c3)ccc2N1
20,158 to 160 °C,"Cc1ccc(-c2cc(C(F)(F)F)nn2-c2ccc(S(=O)(=O)NOC(C)C(=O)O)cc2)cc1 (single isomer, unassigned; (-))"
21,140 °C,CC1=NN(C)c2nc(C)c(CCO)c(=O)n2C1
22,212 °C,O=C(Nc1nc(C(F)(F)F)co1)C1c2ccccc2Oc2c(Cl)cccc21 (racemic)
23,69 °C,C=C(C)C(=O)OCCCc1ccc(-c2ccc(OC(=O)C(=C)C)cc2)cc1

row,melting point,Structure (SMILES)
1,137 to 141 °C,CCc1c(-c2ccc(O)cc2)c2cc(COC)c3cccc1n32
2,179 to 181 °C,OCc1cccc(/C=C/c2nc3cc(F)ccc3s2)n1
3,109 to 110 °C,CCOC(=O)C(=O)c1cn(-c2ccccc2)c2ccccc12
4,115 to 117 °C,Cc1cccc(-c2[nH]c(C(C)C)nc2-c2cccc(-c3ccc4c(c3)CCCS4)c2)n1
5,124 to 125 °C,CN1C(=O)N2CCOC2(c2ccccc2)c2cc(Cl)ccc21 (stereo unspecified)
6,174 to 175 °C,Cc1nc(-c2ccc(CN3C(=O)C4(COc5cc6c(cc54)OCCO6)c4ccccc43)cc2)no1 (stereo unspecified)
7,149 to 151 °C,COC(=O)c1nc(Cl)c(F)c(N)c1I
8,239 to 240 °C,CS(=O)(=O)c1ccc(-n2nc(C(N)=O)cc2-c2ccc(-c3ccco3)cc2)cc1F
9,235 to 237 °C,CCCC(Sc1nc2ccccc2[nH]1)C(=O)Nc1c(SC)cc(C)nc1SC (stereo unspecified)
10,> 240 °C,O=c1[nH]c2ccc(F)c(F)c2c(=O)o1
11,203 to 204 °C,COc1ccc(C(=O)N2c3ccccc3C(n3c4ccccc4c4ccccc43)CC2COCc2ccccc2)cc1OC (stereo unspecified)
12,149 to 151 °C,O=C(Nc1ccccc1)Oc1cc(N2C(=O)C3=C(CCCC3)C2=O)c(F)cc1Cl
13,70 to 72 °C,CC(O)(CCCCl)c1ccc(-c2cccc(F)c2)cc1 (stereo unspecified)
14,137 to 138 °C,CCc1ccc(NC(=S)Nc2cc([N+](=O)[O-])ccc2O)cc1
15,173 °C,CC1CC2C3=C(C(O)CC2(C)C1C(=O)CO)C1(C)C=CC(=O)C=C1C(F)C3 (stereo unspecified)
16,118 to 119 °C,Cc1oc(-c2ccco2)nc1COc1ccc(COc2nn(Cc3ccccc3)cc2C=O)cc1
17,188 °C,CC(C)(C)c1cc(-c2nnc(SCC(=O)O)s2)cc(C(C)(C)C)c1O
18,147 to 149 °C,O=C(O)c1ccccc1OCCN1CCC(c2cn(CCCC3OCCO3)c3ccccc23)CC1
19,169 to 170 °C,CC(C)C1Cc2cnc3c(c2C1(O)CC#N)CCO3 (stereo unspecified)
20,94.5 to 96 °C,CCOC(=O)C(NC(=O)CCNC(=O)CO)C(=O)OCC
21,180 °C,CCCCc1cn(Cc2ccc(-c3ccccc3C(=O)O)cc2)c2c(Br)cccc2c1=O
22,140 to 142 °C,CC(C)C(=O)Nc1cn(-c2cncc(F)c2)nc1C=O
23,143 to 144 °C,COc1ccc(Sc2nc(C)c(CC(=O)O)s2)nn1

row,melting point,Structure (SMILES)
1,231 to 232 °C,COc1ccc(CS(=O)(=O)c2cc3ccc(O)cc3oc2=O)cc1
2,76 to 77 °C,CCCCCCCCCCCCCCCCCCOc1cc(OCCCOc2ccc(OCc3ccccc3)cc2)cc(C(=O)OC)c1
3,280 to 282 °C,c1cnc2c(c1)cc(-c1nnn[nH]1)c1nnnn12
4,205 to 210 °C,CCOc1cc(-c2ccc(-c3ccc(N=Nc4ccccn4)c(OCC)c3)o2)ccc1N=Nc1ccccn1
5,197 to 200 °C,CCOc1cc(OCC)nc(-c2nsc3ccc(-n4c(=O)cc(C(F)(F)F)n(C)c4=O)cc23)n1
6,187 °C,C#Cc1ccc(C(O)C2C(c3ccccc3)CC(=O)N2C)s1 (stereo unspecified)
7,67 to 70 °C,COc1ccc2cc(C(C)C(=O)NCC3(C)CCC4C(=C(C)C(C)=CC4(C)O)O3)ccc2c1 (stereo unspecified)
8,136 to 139 °C,COC(=O)c1ccc(Cn2ccc(OCc3ccc(F)cc3F)c(Br)c2=O)cc1
9,139 to 141 °C,CC(C)(C(N)=O)c1ccc(Br)cc1
10,262 to 264 °C,CCOC(=O)c1oc2cc(O)ccc2c(=O)c1C#N
11,180 to 181 °C,Cc1nc2ccc(C(=O)NS(=O)(=O)c3ccccc3)nc2n1Cc1ccc(CCc2ccccc2)cc1Cl
12,71.5 to 72 °C,COc1ccc(C(Cc2cnccn2)c2ccccc2)cc1OC1CCCC1 (stereo unspecified)
13,133 to 135 °C,COc1ccccc1-c1ccc(C(=O)N2Cc3ccc(C(=O)O)n3Cc3ccccc32)cc1C
14,182 °C,O=C1O[C@@H](Cn2ccnn2)CN1c1ccc(-c2ccc(C3=NOC(C(O)c4ccccc4)C3)nc2)c(F)c1 (stereo partly specified)
15,176 °C,Cc1cccc(NC(=O)NCC(=O)N(CC(=O)OC2CCCCC2)c2ccccc2)c1
16,86 to 88 °C,Brc1cccc(C2Cc3cnc(Nc4ccc(CCN5CCOCC5)cc4)nc3-c3ccccc32)c1 (stereo unspecified)
17,129 to 131 °C,Nc1nc(OCc2ccc(F)cc2)ncc1F
18,200 °C,COc1cccc2c1CCCC2=NNc1nc(-c2ccc(Cl)cc2Cl)cs1
19,106 to 107 °C,COc1ccc(CCn2cnc3ccc(-c4cccc(C(=O)NCCN5CCCC5)c4)nc32)cc1OC
20,129 to 132 °C,CC(C)(C)OC(=O)NCCc1c[nH]c2ccc(C#N)cc12
21,119 to 121 °C,CC(=O)OCc1cc(COC(C)=O)n(C(c2ccccc2)(c2ccccc2)c2ccccc2)n1

row,Structure (SMILES),melting point
1,N#Cc1ccc(N2C(=O)CNC2=O)c2ccccc12,> 275 °C
2,Oc1nc(Cl)c(Cl)cc1Cl,168 to 170 °C
3,CC(C)(C)OC(=O)c1ncn2c1[C@@H]1CCCN1C(=O)c1c-2ccc(N)c1Br,245 to 246 °C
4,CCN(CC)Cc1nc(-c2ncn3c2CN(C)C(=O)c2ccccc2-3)no1,153 to 154 °C
5,CC(C=Cc1ccccc1-c1cc2c(cc1C)C(C)(C)CCC2(C)C)=CC(=O)O,181 to 182 °C
6,Cc1nc(C(C)O)c2n1-c1ccc(Cl)cc1C(c1ccccc1Cl)=NC2 (stereo unspecified),197 to 199 °C
